{
  "source": "patent US11826358B2",
  "about": "“Locally-induced adipose tissue browning by microneedle patch for obesity treatment” (NORTH CAROLINA STATE UNIVERSITY, priority 2017, dated 2023)",
  "key": {"PgKO-PPARγ1": {"system": "PgKO-PPARγ1", "assay": "Adipogenesis in PgKO-PPARγ1 MEF adipocyte model (aP2, Perilipin Q-PCR)", "assay_type": "cell-based, mouse"}, "3T3-L1 adipocytes": {"system": "3T3-L1 adipocytes", "assay": "Browning in fully differentiated 3T3-L1 adipocytes (Q-PCR)", "assay_type": "cell-based", "from_the_text": "To validate the efficiency of Rosi NPs, an in vitro adipocyte model PgKO-PPARγ1 was used in which the reconstitution of a shorter form of PPARγ (γ1) in Ppar^−/− mouse embryonic fibroblast (MEF) rescues adipocyte differentiation only in the presence of exogenous Thiazolidinedione class of ligand (e.g. Rosi). […] In addition to adipogenic potential, the browning capacity of Rosi NPs was also compared. In fully differentiated 3T3-L1 adipocytes, Rosi NPs behaved the same as nude Rosi to up-regulate brown adipocyte markers Elovl3 and Cidea as well as to repress white adipocyte genes Resistin and Adipsin (FIG. 2g). Therefore, the disclosed nanoparticalization strategy can sustain a constant release of Rosi at physiological levels of glucose without affecting its efficiency.\nRNA was extracted from tissues or cells by combining TriZol reagent and NucleoSpin RNA kit with DNase I digestion (Macherey-Nagel), following the manufacturer's instructions. 1 μg total RNA was used to synthesize cDNA by using the High-capacity cDNA Reverse Transcription kit (Applied Biosystems). Quantitative real-time PCR (Q-PCR) were performed on a Bio-Rad CFX96 Real-Time PCR platform by using the GoTaq qPCR Master Mix (Promega). Relative gene expressions were calculated by using ΔΔCt method with Cyclophilin A (cultured cells) or RPL23 (tissues) as the reference gene."}},
  "data": [
    {"smiles": "CN(CCOc1ccc(CC2SC(=O)NC2=O)cc1)c1ccccn1", "note": "(racemic) [nude Rosi, (RS)-5-[4-(2-[methyl(pyridin-2-yl)amino]ethoxy)benzyl]thiazolidine-2,4-dione]", "values": [
      {"measurement": "adipocyte formation (induction of aP2 and Perilipin)", "setting": "PgKO-PPARγ1", "value": "induce adipocyte formation"},
      {"measurement": "brown adipocyte markers Elovl3 and Cidea expression", "setting": "3T3-L1 adipocytes", "value": "up-regulate"},
      {"measurement": "white adipocyte genes Resistin and Adipsin expression", "setting": "3T3-L1 adipocytes", "value": "repress"}
    ]}
  ]
}
